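Results reflect a 48-hour exposure of cells in 96-well plates to compound at five concentrations. The concentration for 50% growth inhibition is given as GI50. At the TGI there is no net growth.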
Key:
Experiment in all cases: NCI-60 cell line screen, 48 h
OVCAR-3 ovarian = test system: OVCAR-3 ovarian
KM12 colon = test system: KM12 colon
RPMI-8226 leukemia = test system: RPMI-8226 leukemia
PC-3 prostate = test system: PC-3 prostate
SK-MEL-5 melanoma = test system: SK-MEL-5 melanoma
SK-MEL-28 melanoma = test system: SK-MEL-28 melanoma
A549 NSCLC = test system: A549 NSCLC
SW-620 colon = test system: SW-620 colon
A498 renal = test system: A498 renal
UO-31 renal = test system: UO-31 renal
MCF7 breast = test system: MCF7 breast
UACC-257 melanoma = test system: UACC-257 melanoma
MDA-MB-231 breast = test system: MDA-MB-231 breast
TK-10 renal = test system: TK-10 renal
OVCAR-4 ovarian = test system: OVCAR-4 ovarian
HOP-92 NSCLC = test system: HOP-92 NSCLC
HCT-15 colon = test system: HCT-15 colon
M14 melanoma = test system: M14 melanoma
HT29 colon = test system: HT29 colon
HCT-116 colon = test system: HCT-116 colon
CCRF-CEM leukemia = test system: CCRF-CEM leukemia
RXF 393 renal = test system: RXF 393 renal
HCC-2998 colon = test system: HCC-2998 colon
BT-549 breast = test system: BT-549 breast
SK-MEL-2 melanoma = test system: SK-MEL-2 melanoma
NCI/ADR-RES ovarian = test system: NCI/ADR-RES ovarian
MDA-MB-435 = test system: MDA-MB-435
UACC-62 melanoma = test system: UACC-62 melanoma
SNB-75 CNS = test system: SNB-75 CNS
COLO 205 colon = test system: COLO 205 colon
LOX IMVI melanoma = test system: LOX IMVI melanoma
K-562 leukemia = test system: K-562 leukemia
OVCAR-5 ovarian = test system: OVCAR-5 ovarian
SR leukemia = test system: SR leukemia
DU-145 prostate = test system: DU-145 prostate
SF-295 CNS = test system: SF-295 CNS
SF-268 CNS = test system: SF-268 CNS
NCI-H522 lung = test system: NCI-H522 lung
T-47D breast = test system: T-47D breast
NCI-H23 lung = test system: NCI-H23 lung
786-0 renal = test system: 786-0 renal
CAKI-1 renal = test system: CAKI-1 renal
SK-OV-3 ovarian = test system: SK-OV-3 ovarian
HL-60(TB) leukemia = test system: HL-60(TB) leukemia
SNB-19 CNS = test system: SNB-19 CNS
IGROV1 ovarian = test system: IGROV1 ovarian
SN12C renal = test system: SN12C renal
NCI-H226 lung = test system: NCI-H226 lung
MALME-3M melanoma = test system: MALME-3M melanoma
NCI-H460 lung = test system: NCI-H460 lung
MOLT-4 leukemia = test system: MOLT-4 leukemia
U251 CNS = test system: U251 CNS
HOP-62 NSCLC = test system: HOP-62 NSCLC
ACHN renal = test system: ACHN renal
SF-539 CNS = test system: SF-539 CNS
OVCAR-8 ovarian = test system: OVCAR-8 ovarian
HS 578T breast = test system: HS 578T breast
EKVX NSCLC = test system: EKVX NSCLC

## CN1CCN(Cc2ccc(NC(=O)c3cncc(C#Cc4cnc5ccc(OCC6COC6)nn45)c3)cc2C(F)(F)F)CC1
OVCAR-3 ovarian
  GI50: 214 nM
  TGI: 705 nM
KM12 colon
  GI50: 5 nM
  TGI: 451 nM
RPMI-8226 leukemia
  GI50: 269 nM
  TGI: 1260 nM
PC-3 prostate
  GI50: 244 nM
  TGI: 1450 nM
SK-MEL-5 melanoma
  GI50: 552 nM
  TGI: 1170 nM
SK-MEL-28 melanoma
  GI50: 218 nM
  TGI: 809 nM
A549 NSCLC
  GI50: 174 nM
  TGI: 655 nM
SW-620 colon
  GI50: 160 nM
  TGI: 599 nM
A498 renal
  GI50: 483 nM
  TGI: 1110 nM
UO-31 renal
  GI50: 167 nM
  TGI: 558 nM
MCF7 breast
  GI50: 96 nM
  TGI: 528 nM
UACC-257 melanoma
  GI50: 384 nM
  TGI: 1070 nM
MDA-MB-231 breast
  GI50: 95 nM
  TGI: 445 nM
TK-10 renal
  GI50: 187 nM
  TGI: 570 nM
OVCAR-4 ovarian
  GI50: 193 nM
  TGI: 979 nM
HOP-92 NSCLC
  GI50: 28 nM
  TGI: 166 nM
HCT-15 colon
  GI50: 153 nM
  TGI: 568 nM
M14 melanoma
  GI50: 88.9 nM
  TGI: 205 nM
HT29 colon
  GI50: 166 nM
  TGI: 687 nM
HCT-116 colon
  GI50: 91.1 nM
  TGI: 306 nM
CCRF-CEM leukemia
  GI50: 184 nM
  TGI: 3.88 µM
RXF 393 renal
  GI50: 159 nM
  TGI: 457 nM
HCC-2998 colon
  GI50: 310 nM
  TGI: 1110 nM
BT-549 breast
  GI50: 538 nM
  TGI: 1180 nM
SK-MEL-2 melanoma
  GI50: 103 nM
  TGI: 237 nM
NCI/ADR-RES ovarian
  GI50: 195 nM
  TGI: 1260 nM
MDA-MB-435
  GI50: 144 nM
  TGI: 615 nM
UACC-62 melanoma
  GI50: 155 nM
  TGI: 717 nM
SNB-75 CNS
  GI50: 182 nM
  TGI: 541 nM
COLO 205 colon
  GI50: 103 nM
  TGI: 222 nM
LOX IMVI melanoma
  GI50: 165 nM
  TGI: 620 nM
K-562 leukemia
  GI50: 5 nM
  TGI: 5.12 µM
OVCAR-5 ovarian
  GI50: 222 nM
  TGI: 812 nM
SR leukemia
  GI50: 147 nM
  TGI: 517 nM
DU-145 prostate
  GI50: 177 nM
  TGI: 573 nM
SF-295 CNS
  GI50: 443 nM
  TGI: 1120 nM
SF-268 CNS
  GI50: 189 nM
  TGI: 629 nM
NCI-H522 lung
  GI50: 97.7 nM
  TGI: 226 nM
T-47D breast
  GI50: 355 nM
  TGI: 1430 nM
NCI-H23 lung
  GI50: 151 nM
  TGI: 693 nM
786-0 renal
  GI50: 272 nM
  TGI: 847 nM
CAKI-1 renal
  GI50: 117 nM
  TGI: 432 nM
SK-OV-3 ovarian
  GI50: 244 nM
  TGI: 927 nM
HL-60(TB) leukemia
  GI50: 121 nM
  TGI: 412 nM
SNB-19 CNS
  GI50: 363 nM
  TGI: 2050 nM
IGROV1 ovarian
  GI50: 142 nM
  TGI: 583 nM
SN12C renal
  GI50: 141 nM
  TGI: 609 nM
NCI-H226 lung
  GI50: 50.4 nM
  TGI: 709 nM
MALME-3M melanoma
  GI50: 89.5 nM
  TGI: 314 nM
NCI-H460 lung
  GI50: 189 nM
  TGI: 676 nM
MOLT-4 leukemia
  GI50: 129 nM
  TGI: 941 nM
U251 CNS
  GI50: 251 nM
  TGI: 935 nM
HOP-62 NSCLC
  GI50: 175 nM
  TGI: 589 nM
ACHN renal
  GI50: 167 nM
  TGI: 605 nM
SF-539 CNS
  GI50: 165 nM
  TGI: 795 nM
OVCAR-8 ovarian
  GI50: 163 nM
  TGI: 600 nM
HS 578T breast
  GI50: 235 nM
  TGI: 1320 nM
EKVX NSCLC
  GI50: 273 nM
  TGI: 954 nM

Source: PubChem BioAssay (NCI)
